Test results published in US6362166B1, “Antipicornaviral compounds and methods for their use and preparation” (Agouron Pharmaceuticals, Inc., priority 1996, dated 2002).
Read-outs that look alike come from different tables or passages of the source.

Columns and labels:
[1] = target: T1, Recombinant Rhinovirus 3C protease (RVP) serotype-14 (Human rhinovirus 14, UniProt P03303); assay: Inhibition of Rhinovirus Protease (fluorescence resonance energy transfer assay), serotype 14; format: biochemical, human rhinovirus (HRV); settings: for kobs/I: RVP serotype-14, progress curves in enzyme start experiments; for kinact/KI: pH 7.6, read-out: kobs/I
T1 construct: Recombinant Rhinovirus 3C proteases from serotypes 14, 16, 2 or 89; made in house

HI-HeLa cells = assay: Cytotoxicity in mock-infected HI-HeLa cells (antirhinoviral assay, XTT); format: cell-based
HRV-14 = assay: Antirhinoviral HI-HeLa Cell Culture Assay (Cell Protection Assay, XTT dye reduction); format: cell-based, human rhinovirus (HRV) serotype-14
In short: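 Protection measured via XTT dye reduction (450/650 nm) two days after compound treatment of HI-HeLa cells, mock-infected or infected with cDNA-derived HRV-14 at m.o.i. 0.13. CC50 divided by EC50 gives the therapeutic index.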

[2] = target: T2, Recombinant Rhinovirus 3C protease (RVP) serotype 2 (Human rhinovirus 2, UniProt P04936); assay: Inhibition of Rhinovirus Protease (fluorescence resonance energy transfer assay), serotype 2; format: biochemical, human rhinovirus (HRV)
T2 construct: Recombinant Rhinovirus 3C proteases from serotypes 14, 16, 2 or 89; made in house
Procedure: (§1) Stock solution (50 mM, in DMSO) of various compounds were prepared; dilutions were in the same solvent. Recombinant Rhinovirus 3C proteases from serotypes 14, 16, 2 or 89 were prepared by the following standard chromatographic procedures: (1) ion exchange using Q Sepharose Fast Flow from Pharmacia; (2) affinity chromatography using Affi-Gel Blue from Biorad; and (3) sizing using Sephadex G-100 from Pharmacia. Assays contained 2% DMSO, 50 mM tris pH 7.6, 1 mM EDTA, a compound at the indicated concentrations, approximately 1 μM substrate, and 50-100 nM protease. […] The kobs/I values were obtained from reactions initiated by addition of enzyme rather than substrate. RVP activity is measured in the fluorescence resonance energy transfer assay. The substrate was (N-terminal) DABCYL-([…]Gyl)-EDANS. In the uncleaved peptide, the EDANS fluorescence was quenched by the proximal DABCYL moeity. When the peptide was cleaved, the quenching was relieved, and activity was measured as an increase in fluorescence signal.
(§2) In the above table, all data is RVP serotype-14 unless otherwise noted in parentheses. All strains of human rhinovirus (HRV) were purchased from American Type Culture Collection (ATCC), except for serotype 14, which was produced from the infectious cDNA clone constructed and supplied to us by Dr. Roland Rueckert at the Institute for Molecular Virology, University of Wisconsin, Madison, Wisc. […] The data in the column designated kobs/I was measured from progress curves in enzyme start experiments.

[3] = target: T3, Recombinant Rhinovirus 3C protease (RVP) serotype 16 (Human rhinovirus 16, UniProt Q82122); assay: Inhibition of Rhinovirus Protease (fluorescence resonance energy transfer assay), serotype 16; format: biochemical, human rhinovirus (HRV); settings: for kobs/I / kinact/KI: progress curves in enzyme start experiments; for kinact/KI: pH 7.6, read-out: kobs/I
T3 construct: Recombinant Rhinovirus 3C proteases from serotypes 14, 16, 2 or 89; made in house
Procedure: as §1, §2

[4] = Cytotoxicity in mock-infected HI-HeLa cells (antirhinoviral assay, XTT); format: cell-based; settings: human; mock-infected HI-HeLa cells; two days; XTT; read-out: CC50
[5] = HI-HeLa cells infected with HRV-14, m.o.i. 0.13, two days, XTT, read-out: EC50
[6] = Rhinovirus B, HRV14, 48 h, HI-HeLa cells infected with HRV-14, m.o.i. 0.13, two days, XTT, read-out: EC50

T3 sequence (Q82122 1511-1693): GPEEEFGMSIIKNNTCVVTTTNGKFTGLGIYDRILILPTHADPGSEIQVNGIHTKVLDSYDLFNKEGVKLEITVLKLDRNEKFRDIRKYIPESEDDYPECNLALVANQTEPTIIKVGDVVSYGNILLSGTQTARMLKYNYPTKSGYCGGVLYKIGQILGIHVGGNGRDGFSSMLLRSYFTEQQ
T1 sequence (P03303 1538-1719): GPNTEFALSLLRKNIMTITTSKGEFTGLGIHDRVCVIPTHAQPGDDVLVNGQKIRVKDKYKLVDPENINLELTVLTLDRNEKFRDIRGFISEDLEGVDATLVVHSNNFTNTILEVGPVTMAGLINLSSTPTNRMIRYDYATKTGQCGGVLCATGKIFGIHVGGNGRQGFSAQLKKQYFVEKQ
T2 sequence (P04936 1508-1690): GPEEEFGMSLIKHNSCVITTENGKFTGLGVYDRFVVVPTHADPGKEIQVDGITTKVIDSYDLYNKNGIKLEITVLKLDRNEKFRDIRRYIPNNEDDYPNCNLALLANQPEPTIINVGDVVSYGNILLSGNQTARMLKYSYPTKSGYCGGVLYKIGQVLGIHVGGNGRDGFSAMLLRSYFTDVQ

Row | Compound | Ki [1] [µM] | kinact/KI [1] [M⁻¹ s⁻¹] | CC50 at 2 days [4] [µM] | EC50 (HRV-14; [6]) [µM] | other results
1 | CCOC(=O)/C(C)=C/[C@H](CCC(N)=O)NC(=O)[C@H](Cc1ccccc1)NC(=O)[C@H](CC(C)C)NC(=O)SC(C)C [Compound 171] | – | – | – | – | kobs/I [1]: 21,200 M-1 sec-1; CC50 (HI-HeLa cells): > 100 µM; EC50 (HRV-14; [5]): 0.71 µM; kobs/I ([2]; progress curves in enzyme start experiments): 830 M⁻¹ s⁻¹; kobs/I ([3]; RVP serotype 16): 3,250 M-1 sec-1
2 | CCOC(=O)/C=C/[C@H](CCC(N)=O)NC(=O)[C@H](Cc1ccc(C)cc1)NC(=O)[C@@H](NC(=O)SC1CCCC1)C(C)C [Compound 183] | 0.55 | 500000 | > 100 | – | EC50 (HRV-14; Rhinovirus B, HRV14, 48 h): 0.03 µM; kinact/KI ([3]; RVP serotype 16): 60000 M⁻¹ s⁻¹
3 | CC(C)C[C@H](NC(=O)OCc1ccccc1)C(=O)N[C@@H](Cc1ccccc1)C(=O)N[C@H](/C=C/C(=O)n1ccc2ccccc21)CCC(N)=O [Compound 89] | 5 | 53400 | 29 | 1.8 | kinact/KI ([3]; RVP serotype 16): 2800 M⁻¹ s⁻¹
4 | CCOC(=O)/C=C/[C@H](CCC(N)=O)NC(=O)[C@H](Cc1ccc(CO)cc1)NC(=O)[C@H](CC(C)C)NC(=O)OCc1ccccc1 [Compound 114] | ≥ 1 | 82300 | > 320 | 0.55 | kinact/KI ([2]; pH 7.6, progress curves in enzyme start experiments, read-out: kobs/I): 1970 M⁻¹ s⁻¹
5 | COC(=O)/C=C\[C@H](CCC(N)=O)NC(=O)[C@H](Cc1ccccc1)NC(=O)[C@H](CC(C)C)NC(=O)OCc1ccccc1 [Compound 7, Methyl-3-(CBZ-L-Leu-L-Phe-L-Gln)-Z-Propenoate] | 9.5 | 2400 | > 320 | 3.2 | inhibition at 1 µM ([3]; RVP serotype 16, 1 μM compound, 10 minute preincubation with 50 nM RVP, read-out: INHIB (percent inhibition)): 42%
6 | CCOC(=O)/C=C/[C@H](CCC(N)=O)NC(=O)[C@H](Cc1ccccc1)NC(=O)[C@@H](NC(=O)SCC)C(C)C [Compound 180] | 0.42 | 300000 | > 100 | 0.056 | –
7 | CC(C)CC(NC(=O)OCc1ccccc1)C(=O)NC(Cc1ccccc1)C(=O)NC(C=Cc1ccccc1C#N)CCC(N)=O (stereo not shown) [Compound 145] | 10 to 20 | – | > 320 | > 320 | –
8 | CON=C/C=C/[C@H](CCC(N)=O)NC(=O)[C@H](Cc1ccccc1)NC(=O)[C@H](CC(C)C)NC(=O)OCc1ccccc1 [Compound 83] | 8 | – | > 320 | 100 | –
9 | CCOC(=O)/C=C/[C@H](CCC(N)=O)NC(=O)[C@H](Cc1ccccc1)NC(=O)[C@H](CC(C)C)NC(=O)OCc1ccncc1 [Compound 36] | 15 | 12000 | > 320 | 5.6 | –
10 | CC(C)C[C@H](NC(=O)OCc1ccccc1)C(=O)N[C@@H](Cc1ccccc1)C(=O)N[C@H](/C=C/C(=O)N(C)O)CCC(N)=O [Compound 138] | 20 | 1770 | 41.7 | > 41.7 | –
11 | COc1ccc2c(c1)CCN2C(=O)C=CC(CCC(N)=O)NC(=O)C(Cc1ccccc1)NC(=O)C(CC(C)C)NC(=O)OCc1ccccc1 (stereo not shown) [Compound 93] | – | 3440 | > 320 | > 320 | –
12 | CC(C)C[C@H](NC(=O)OCc1ccccc1)C(=O)N[C@@H](Cc1ccccc1)C(=O)N[C@H](/C=C/CCl)CCC(N)=O [Compound 74] | 2.4 | – | 250 | 10 | –
13 | CCOC(=O)/C=C/[C@H](COC(N)=O)NC(=O)[C@H](Cc1ccccc1)NC(=O)[C@H](CC(C)C)NC(=O)OCc1ccccc1 [Compound 56] | 15 | 5620 | > 320 | 1.6 | –
14 | CCOC(=O)/C=C/[C@H](CCC(N)=O)NC(=O)[C@H](Cc1ccccc1)NC(=O)[C@H](CC(C)C)NC(=O)CSc1ccccn1 [Compound 118] | 39 | 1450 | > 320 | 17.8 | –
15 | CCOC(=O)/C=C/[C@H](CCC(N)=O)NC(=O)[C@H](Cc1ccccc1)NC(=O)[C@H](CC(C)C)NC(=O)SC [Compound 119] | 5 | 69800 | > 320 | 1.1 | –
16 | CCOC(=O)/C=C/[C@H](CCC(=O)NC(c1ccccc1)(c1ccccc1)c1ccccc1)NC(=O)[C@H](Cc1ccccc1)NC(=O)[C@H](CC(C)C)NC(=O)OCc1ccccc1 [Compound 2, Ethyl-3-[CBZ-L-Leu-L-Phe-L-(Tr-Gln)]-E-Propenoate] | 6.6 | – | > 320 | 100 | –
17 | CC(C)C[C@H](NC(=O)OCc1ccccc1)C(=O)N[C@@H](Cc1ccccc1)C(=O)N[C@H](/C=C/C(=O)OC(C)C)CCC(N)=O [Compound 17, Isopropyl-3-(CBZ-L-Leu-L-Phe-L-Gln)-E-Propenoate] | 1.25 | 6100 | > 100 | 1.8 | –
18 | CCOC(=O)/C=C/[C@H](CCC(N)=O)NC(=O)[C@H](Cc1ccccc1)NC(=O)[C@H](CC(C)C)NC(C)=O [Compound 107] | 13.5 | 3660 | > 320 | 13.5 | –
19 | CCOC(=O)/C=C/[C@H](CCC(N)=O)NC(=O)[C@H](Cc1ccccc1)NC(=O)[C@H](CC(C)C)NC(=O)c1ccc(Oc2ccccc2)cc1 [Compound 104] | 2.5 | 8000 | > 320 | 5.2 | Ki [3]: 1.5 µM
20 | CC(C)C[C@H](NC(=O)OCc1ccccc1)C(=O)N[C@@H](Cc1ccccc1)C(=O)N[C@H](/C=C/c1nccn1C)CCC(N)=O [Compound 65] | 2.9 | – | > 320 | 158 | –
21 | CCOC(=O)/C=C/[C@H](CCC(N)=O)NC(=O)[C@H](Cc1cnc[nH]1)NC(=O)[C@H](CC(C)C)NC(=O)OCc1ccccc1 [Compound 112] | 13 | 6800 | > 320 | – | EC50 (HRV-14; Rhinovirus B, HRV14, 48 h): 27 µM
22 | CCOC(=O)/C=C/[C@H](CCC(N)=O)NC(=O)[C@H](Cc1ccccc1)NC(=O)[C@@H](NC(=O)OCc1ccccc1)C(C)O (stereo partly shown) [Compound 152] | 3.2 | 38900 | > 320 | 1.78 | –
23 | CC(C)CC(NC(=O)OCc1ccccc1)C(=O)NC(Cc1ccccc1)C(=O)NC(C=C1CCOC1=O)CCC(N)=O (stereo not shown) [Compound 90] | – | – | – | – | kobs/I [1]: 10,918 M-1 sec-1; CC50 (HI-HeLa cells): > 320 µM; EC50 (HRV-14; [5]): 5.2 µM; kobs/I ([3]; RVP serotype 16): 3,600 M-1 sec-1
24 | CC(C)C[C@H](NC(=O)OCc1ccccc1)C(=O)N[C@@H](Cc1ccccc1)C(=O)N[C@H](/C=C/C(=O)N1CCc2cc([N+](=O)[O-])ccc21)CCC(N)=O [Compound 86] | 4 | 12000 | > 320 | 17 | –
25 | CC(C)C[C@H](NC(=O)OCc1ccccc1)C(=O)N[C@@H](Cc1ccccc1)C(=O)N[C@H](/C=C/C(=O)OCC(C)(C)C)CCC(N)=O [Compound 163] | 3.6 | 9800 | > 100 | 0.5 | –
